This note sets out measurements from ChEMBL document CHEMBL5291721, “A preclinical secondary pharmacology resource illuminates target-adverse drug reaction associations of marketed drugs” (Nat Commun, 2023).

Test [1] deals with Cannabinoid receptor 1 (Homo sapiens, UniProt P21554). The test is classed as functional, cell-based.
In test [2] the target is Gamma-aminobutyric acid receptor subunit alpha-1 (Rattus norvegicus, UniProt P62813).
Test [3] concerns the target Glutamate receptor ionotropic, NMDA 1 (Rattus norvegicus, UniProt P35439).
Test [4] addresses T1, 5-hydroxytryptamine receptor 1A (Homo sapiens, UniProt P08908).
T1 sequence (P08908 whole entry): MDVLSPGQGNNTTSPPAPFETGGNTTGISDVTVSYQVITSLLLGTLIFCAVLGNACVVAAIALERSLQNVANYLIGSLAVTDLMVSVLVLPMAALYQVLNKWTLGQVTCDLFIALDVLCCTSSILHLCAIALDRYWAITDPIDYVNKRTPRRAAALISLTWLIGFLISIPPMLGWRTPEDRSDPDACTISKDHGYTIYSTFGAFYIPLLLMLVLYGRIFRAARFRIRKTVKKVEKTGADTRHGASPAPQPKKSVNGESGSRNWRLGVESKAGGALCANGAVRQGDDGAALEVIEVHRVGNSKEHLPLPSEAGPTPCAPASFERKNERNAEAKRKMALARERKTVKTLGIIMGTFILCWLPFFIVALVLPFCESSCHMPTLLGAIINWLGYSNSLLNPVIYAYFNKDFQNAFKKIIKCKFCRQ
The test is classed as functional, cell-based.

Test [5] has as its target Motilin receptor (Homo sapiens, UniProt O43193).
In test [6] the target is T2, Progesterone receptor (Homo sapiens, UniProt P06401).
T2 sequence (P06401 whole entry): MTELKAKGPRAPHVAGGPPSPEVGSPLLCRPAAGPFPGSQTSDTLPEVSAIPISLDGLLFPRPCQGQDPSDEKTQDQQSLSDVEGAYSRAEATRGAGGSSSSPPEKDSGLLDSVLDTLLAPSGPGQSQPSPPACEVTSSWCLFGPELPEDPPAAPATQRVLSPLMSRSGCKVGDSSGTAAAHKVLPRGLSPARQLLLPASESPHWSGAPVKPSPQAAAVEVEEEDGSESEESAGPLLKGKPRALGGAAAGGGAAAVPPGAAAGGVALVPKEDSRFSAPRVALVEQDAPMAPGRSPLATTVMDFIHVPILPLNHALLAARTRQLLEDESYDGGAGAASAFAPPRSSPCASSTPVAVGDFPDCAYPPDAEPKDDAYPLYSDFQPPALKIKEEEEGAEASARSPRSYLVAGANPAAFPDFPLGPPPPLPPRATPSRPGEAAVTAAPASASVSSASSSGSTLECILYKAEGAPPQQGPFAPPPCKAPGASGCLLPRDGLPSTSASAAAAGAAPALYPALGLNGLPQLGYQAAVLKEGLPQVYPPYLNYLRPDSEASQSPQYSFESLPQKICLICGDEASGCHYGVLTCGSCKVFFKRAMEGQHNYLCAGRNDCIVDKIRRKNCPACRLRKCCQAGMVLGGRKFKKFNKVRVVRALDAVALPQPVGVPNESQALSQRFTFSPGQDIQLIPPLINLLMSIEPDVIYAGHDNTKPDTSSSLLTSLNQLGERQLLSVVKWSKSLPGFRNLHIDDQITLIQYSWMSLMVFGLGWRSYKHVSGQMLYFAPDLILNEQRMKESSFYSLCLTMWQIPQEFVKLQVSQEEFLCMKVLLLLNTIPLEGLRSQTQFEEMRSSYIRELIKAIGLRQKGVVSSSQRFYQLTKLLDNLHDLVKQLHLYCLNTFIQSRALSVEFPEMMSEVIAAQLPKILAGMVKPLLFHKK
The test is classed as functional.

Test [7] addresses cGMP-inhibited 3',5'-cyclic phosphodiesterase 3A (Homo sapiens, UniProt Q14432). The test is classed as functional.
Test [8] addresses T3, Androgen receptor (Homo sapiens, UniProt P10275).
T3 sequence (P10275 whole entry): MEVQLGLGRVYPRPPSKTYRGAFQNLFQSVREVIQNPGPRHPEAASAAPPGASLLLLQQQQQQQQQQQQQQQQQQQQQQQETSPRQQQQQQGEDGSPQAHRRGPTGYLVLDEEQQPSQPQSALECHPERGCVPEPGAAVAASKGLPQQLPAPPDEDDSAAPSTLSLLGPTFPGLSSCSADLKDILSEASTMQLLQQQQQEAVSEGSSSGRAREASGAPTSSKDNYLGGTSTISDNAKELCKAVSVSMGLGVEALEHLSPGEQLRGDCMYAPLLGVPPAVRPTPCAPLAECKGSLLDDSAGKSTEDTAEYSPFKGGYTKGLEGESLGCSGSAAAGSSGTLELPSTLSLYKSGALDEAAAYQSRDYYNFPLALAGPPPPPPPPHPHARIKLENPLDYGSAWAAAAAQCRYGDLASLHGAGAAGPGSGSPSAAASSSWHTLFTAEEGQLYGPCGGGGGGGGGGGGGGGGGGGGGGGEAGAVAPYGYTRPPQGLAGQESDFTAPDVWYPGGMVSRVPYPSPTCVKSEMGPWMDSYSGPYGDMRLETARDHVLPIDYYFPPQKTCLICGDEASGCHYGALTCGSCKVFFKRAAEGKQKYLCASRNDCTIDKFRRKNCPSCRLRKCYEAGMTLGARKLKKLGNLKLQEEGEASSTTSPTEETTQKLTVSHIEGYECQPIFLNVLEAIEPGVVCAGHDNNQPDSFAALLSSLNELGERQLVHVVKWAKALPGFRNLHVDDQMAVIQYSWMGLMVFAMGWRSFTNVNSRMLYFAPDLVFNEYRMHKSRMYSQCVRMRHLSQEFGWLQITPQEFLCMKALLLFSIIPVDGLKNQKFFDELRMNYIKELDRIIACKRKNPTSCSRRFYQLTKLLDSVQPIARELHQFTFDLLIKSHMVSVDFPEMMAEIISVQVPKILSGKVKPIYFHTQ

The target in test [9] is Delta-type opioid receptor (Homo sapiens, UniProt P41143).
Sequence of Delta-type opioid receptor (P41143 whole entry): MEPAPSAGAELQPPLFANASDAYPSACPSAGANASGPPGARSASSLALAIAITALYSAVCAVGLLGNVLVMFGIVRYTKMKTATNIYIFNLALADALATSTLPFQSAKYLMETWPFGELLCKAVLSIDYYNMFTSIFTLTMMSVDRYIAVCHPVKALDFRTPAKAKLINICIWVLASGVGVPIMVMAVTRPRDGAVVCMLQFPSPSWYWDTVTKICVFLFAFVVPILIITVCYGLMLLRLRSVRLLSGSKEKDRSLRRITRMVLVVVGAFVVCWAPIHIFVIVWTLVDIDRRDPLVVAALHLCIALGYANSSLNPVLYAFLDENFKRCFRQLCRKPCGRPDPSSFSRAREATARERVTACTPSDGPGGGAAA
Also: assay procedure not described here.

Sequence of cGMP-inhibited 3',5'-cyclic phosphodiesterase 3A (Q14432 whole entry): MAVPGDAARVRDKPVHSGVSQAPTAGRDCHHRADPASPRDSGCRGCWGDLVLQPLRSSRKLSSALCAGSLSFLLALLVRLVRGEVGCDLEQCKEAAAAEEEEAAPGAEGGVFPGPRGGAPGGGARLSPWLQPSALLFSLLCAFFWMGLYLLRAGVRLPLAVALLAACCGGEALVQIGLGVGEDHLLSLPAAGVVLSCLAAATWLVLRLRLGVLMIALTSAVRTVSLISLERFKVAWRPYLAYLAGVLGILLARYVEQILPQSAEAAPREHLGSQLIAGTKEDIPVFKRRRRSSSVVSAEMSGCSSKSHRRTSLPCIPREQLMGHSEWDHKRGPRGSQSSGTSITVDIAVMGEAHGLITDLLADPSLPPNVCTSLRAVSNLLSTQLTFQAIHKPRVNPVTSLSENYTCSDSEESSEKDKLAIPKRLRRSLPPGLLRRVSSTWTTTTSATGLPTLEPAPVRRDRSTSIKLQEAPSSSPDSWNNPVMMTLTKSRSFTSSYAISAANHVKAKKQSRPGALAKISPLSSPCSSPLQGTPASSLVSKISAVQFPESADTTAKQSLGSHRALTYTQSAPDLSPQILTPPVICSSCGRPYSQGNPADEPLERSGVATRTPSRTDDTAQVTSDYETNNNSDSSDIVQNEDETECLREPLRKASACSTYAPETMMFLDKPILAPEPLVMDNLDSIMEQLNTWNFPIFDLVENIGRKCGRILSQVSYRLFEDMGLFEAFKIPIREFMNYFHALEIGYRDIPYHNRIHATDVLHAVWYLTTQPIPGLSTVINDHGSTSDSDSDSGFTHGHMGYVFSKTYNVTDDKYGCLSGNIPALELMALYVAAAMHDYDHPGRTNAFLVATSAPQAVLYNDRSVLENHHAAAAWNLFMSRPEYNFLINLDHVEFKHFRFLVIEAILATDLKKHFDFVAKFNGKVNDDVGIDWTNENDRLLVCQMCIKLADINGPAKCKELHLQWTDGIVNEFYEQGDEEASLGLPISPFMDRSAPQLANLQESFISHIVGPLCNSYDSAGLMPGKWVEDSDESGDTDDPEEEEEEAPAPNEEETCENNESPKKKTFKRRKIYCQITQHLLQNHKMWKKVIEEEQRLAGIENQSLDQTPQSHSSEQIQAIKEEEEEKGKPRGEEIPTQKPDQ
Sequence of Gamma-aminobutyric acid receptor subunit alpha-1 (P62813 whole entry): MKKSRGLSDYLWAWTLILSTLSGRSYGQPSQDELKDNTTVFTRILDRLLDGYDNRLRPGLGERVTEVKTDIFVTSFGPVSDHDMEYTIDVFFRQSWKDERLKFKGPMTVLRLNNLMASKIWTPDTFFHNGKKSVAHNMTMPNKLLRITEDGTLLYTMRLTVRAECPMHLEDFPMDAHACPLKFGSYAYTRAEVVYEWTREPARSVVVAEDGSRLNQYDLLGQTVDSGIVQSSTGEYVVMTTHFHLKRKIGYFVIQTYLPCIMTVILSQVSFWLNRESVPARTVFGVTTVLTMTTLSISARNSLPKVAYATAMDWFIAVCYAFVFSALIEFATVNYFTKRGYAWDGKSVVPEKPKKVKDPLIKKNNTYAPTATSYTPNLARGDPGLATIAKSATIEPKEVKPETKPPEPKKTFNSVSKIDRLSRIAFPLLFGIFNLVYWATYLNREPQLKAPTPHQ
Sequence of Cannabinoid receptor 1 (P21554 whole entry): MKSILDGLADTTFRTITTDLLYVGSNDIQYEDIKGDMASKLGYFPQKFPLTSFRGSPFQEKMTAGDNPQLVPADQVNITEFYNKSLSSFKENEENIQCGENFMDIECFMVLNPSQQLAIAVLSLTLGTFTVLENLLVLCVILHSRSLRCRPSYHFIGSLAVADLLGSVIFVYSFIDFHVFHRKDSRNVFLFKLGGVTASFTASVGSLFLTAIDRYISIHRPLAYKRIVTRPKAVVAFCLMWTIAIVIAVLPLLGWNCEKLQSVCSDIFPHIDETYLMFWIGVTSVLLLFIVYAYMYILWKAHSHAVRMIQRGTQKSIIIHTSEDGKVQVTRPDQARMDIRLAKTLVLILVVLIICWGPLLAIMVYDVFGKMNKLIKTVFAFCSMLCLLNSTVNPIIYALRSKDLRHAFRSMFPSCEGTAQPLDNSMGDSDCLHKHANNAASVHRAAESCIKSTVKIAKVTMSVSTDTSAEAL
Sequence of Motilin receptor (O43193 whole entry): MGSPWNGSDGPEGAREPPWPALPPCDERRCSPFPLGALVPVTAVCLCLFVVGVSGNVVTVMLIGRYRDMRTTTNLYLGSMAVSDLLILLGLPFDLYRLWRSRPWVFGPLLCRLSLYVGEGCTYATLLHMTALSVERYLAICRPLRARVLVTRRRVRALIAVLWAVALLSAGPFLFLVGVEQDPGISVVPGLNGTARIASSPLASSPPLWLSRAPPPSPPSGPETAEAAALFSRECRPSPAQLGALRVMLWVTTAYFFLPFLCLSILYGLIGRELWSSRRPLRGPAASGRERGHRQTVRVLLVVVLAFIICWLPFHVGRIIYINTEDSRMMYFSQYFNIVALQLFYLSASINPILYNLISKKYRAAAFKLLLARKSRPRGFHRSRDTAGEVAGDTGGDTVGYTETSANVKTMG

For the compound `CCCc1nc2c(C)cc(-c3nc4ccccc4n3C)cc2n1Cc1ccc(-c2ccccc2C(=O)O)cc1`, the AC50 in test [1] was above 10 µM; in test [2] it was above 30 µM; in test [3] it was above 30 µM; in [4], above 30 µM; in test [5] it was above 30 µM; in test [6], above 30 µM. This compound also returned a half-maximal activity concentration (AC50) in [7] above 30 µM.

The compound `C=C(C)CNc1ccc(C(C)C(=O)O)cc1` (configuration not stated) [ALMINOPROFEN] came in with an AC50 in test [8] above 30 µM.

Take `C[C@H]1CN(C[C@H](Cc2ccccc2)C(=O)NCC(=O)O)CC[C@@]1(C)c1cccc(O)c1` [ALVIMOPAN]: the AC50 in test [8] was above 30 µM.

In test [2], `O=C(O)c1ccccc1` [BENZOIC ACID] showed an AC50 above 30 µM.

In turn, `Nc1c(CC(=O)O)cccc1C(=O)c1ccc(Br)cc1` [BROMFENAC] gave an AC50 in [2] above 30 µM.

For `Cc1nnc(SCC2=C(C(=O)O)N3C(=O)[C@@H](NC(=O)Cn4cnnn4)[C@H]3SC2)s1` [CEFAZOLIN], the AC50 is above 300 µM in test [1]; above 30 µM in test [3]; above 300 µM in test [4]; above 300 µM in test [5]; above 300 µM in test [9]; above 300 µM in test [6]. In test [7], the AC50 was above 300 µM.

Turning to `Cc1nc(Nc2ncc(C(=O)Nc3c(C)cccc3Cl)s2)cc(N2CCN(CCO)CC2)n1` [DASATINIB], the concentration at half-maximal activity (AC50) in [1] was above 30 µM; in [3] it was above 10 µM; in test [4], above 30 µM; in test [5] it was above 30 µM; in test [9], 9.76 µM; in test [6] it was above 30 µM. Besides, in test [7], the AC50 is above 30 µM.

In [8], `C[C@H]1O[C@@H](O[C@H]2CC[C@@]3(C)[C@H](CC[C@@H]4[C@@H]3C[C@@H](O)[C@]3(C)[C@@H](C5=CC(=O)OC5)CC[C@]43O)C2)C[C@H](O)[C@@H]1O[C@H]1C[C@H](O)[C@H](O[C@H]2C[C@H](O)[C@H](O[C@@H]3O[C@H](CO)[C@@H](O)[C@H](O)[C@H]3O)[C@@H](C)O2)[C@@H](C)O1` [DESLANOSIDE] returned a half-maximal activity concentration (AC50) above 30 µM.

On to `CC[C@H]1OC(=O)[C@H](C)[C@@H](O[C@H]2C[C@@](C)(OC)[C@@H](O)[C@H](C)O2)[C@H](C)[C@@H](O[C@@H]2O[C@H](C)C[C@H](N(C)C)[C@H]2O)[C@](C)(O)C[C@@H](C)[C@@H]2N[C@@H](COCCOC)O[C@H]([C@H]2C)[C@]1(C)O` [DIRITHROMYCIN], for which the half-maximal activity concentration (AC50) in test [2] is above 30 µM.

`CCCCc1oc2ccc(NS(C)(=O)=O)cc2c1C(=O)c1ccc(OCCCN(CCCC)CCCC)cc1` [DRONEDARONE]: the half-maximal activity concentration (AC50) in test [2] is above 30 µM.

On to `O=C(O)Cc1ccccc1Oc1ccc(Cl)cc1Cl` [FENCLOFENAC], for which the AC50 in test [1] was above 30 µM; in [2], above 30 µM; in test [3] it was above 10 µM; in test [4], above 10 µM; in test [5] it was above 10 µM; in [9] it was above 30 µM. The concentration at half-maximal activity (AC50) in test [7] is above 30 µM.

Take `O=C(O)P(=O)(O)O` [FOSCARNET]: the AC50 in test [2] was above 30 µM.

`N=C(N)N/N=C/c1c(Cl)cccc1Cl` [GUANABENZ] registered a concentration at half-maximal activity (AC50) in test [8] above 30 µM.

In the case of `C[N+](C)(CCCCCC[N+](C)(C)C1c2ccccc2-c2ccccc21)C1c2ccccc2-c2ccccc21` [HEXAFLUORENIUM], the AC50 in test [2] was above 30 µM.

In [2], `Cc1cc(=O)oc2cc(O)ccc12` [HYMECROMONE] yielded an AC50 above 30 µM.

`COc1cc(C(C)=O)ccc1OCCCN1CCC(c2noc3cc(F)ccc23)CC1` [ILOPERIDONE]: the AC50 was above 30 µM in test [1]; above 30 µM in test [2]; 0.055 µM in [4]; above 30 µM in test [5]; above 30 µM in test [9]; above 30 µM in test [6].

For the compound `COc1c2occc2c(OC)c2c(=O)cc(C)oc12` [KHELLIN], the AC50 in [2] is above 30 µM.

In the case of `CC(C)[C@@H]1CC[C@@H](C)C[C@H]1O` [LEVOMENTHOL], the AC50 in [8] was above 30 µM.

Regarding `C=N[C@@H](C(=O)N[C@@H]1C(=O)N2[C@@H]1SC(C)(C)[C@@H]2C(=O)O)c1ccccc1` [METAMPICILLIN], the AC50 in [2] was above 30 µM.

Consider `O=C(NNCS(=O)(=O)O)c1ccncc1` [METHANIAZIDE], for which the concentration at half-maximal activity (AC50) in [2] was above 30 µM.

Consider `Cc1cc(=O)[nH]c(=S)[nH]1` [METHYLTHIOURACIL], for which, in test [2], the AC50 is above 30 µM.

The compound `CN(C)c1ccc(O)c2c1C[C@H]1C[C@H]3[C@H](N(C)C)C(O)=C(C(N)=O)C(=O)[C@@]3(O)C(O)=C1C2=O` [MINOCYCLINE] yielded an AC50 in [8] above 30 µM.

Compound `CCNC(=O)/C=C(C)/C=C/C=C(C)/C=C/c1c(C)cc(OC)c(C)c1C` [MOTRETINIDE] yielded a concentration at half-maximal activity (AC50) in test [8] above 30 µM.

The compound `O=C(O)CN(CCN(CC(=O)O)CC(=O)O)CCN(CC(=O)O)CC(=O)O` [PENTETIC ACID] returned an AC50 in [2] above 30 µM.

Take `CC(CN1c2ccccc2Sc2ccccc21)N(C)C` (configuration not stated) [PROMETHAZINE]: the AC50 in [1] is above 30 µM; in test [2] it was above 30 µM; in [3] it was above 10 µM; in test [4] it was above 10 µM; in [5] it was above 10 µM; in test [9], above 30 µM. In test [7], this compound came in with a concentration at half-maximal activity (AC50) above 30 µM.

Compound `C[Se]CC[C@H](N)C(=O)O` [SELENOMETHIONINE] returned a half-maximal activity concentration (AC50) in test [2] above 30 µM.

As to `Cc1ccsc1C(=CCCN1CCC[C@@H](C(=O)O)C1)c1sccc1C` [TIAGABINE], in test [8], the AC50 was above 30 µM.

Compound `Cc1ccc(C(=O)c2ccc(CC(=O)O)n2C)cc1` [TOLMETIN] displayed an AC50 in [8] above 30 µM.

In test [2], `C[C@]12C=CC(=O)C=C1CC[C@H]1[C@@H]3C[C@@H](O)[C@](O)(C(=O)CO)[C@@]3(C)C[C@H](O)[C@@]12F` [TRIAMCINOLONE] registered a half-maximal activity concentration (AC50) above 30 µM.

On to `CC(C)C[C@H](NC(=O)[C@@H](O)[C@H](N)Cc1ccccc1)C(=O)O` [UBENIMEX], for which the concentration at half-maximal activity (AC50) in test [1], in [2], in [3], in [4], in test [9] and in [6] was above 30 µM each time. In [7], this compound yielded an AC50 above 30 µM.

On to `O=C1Cc2cc(CCN3CCN(c4nsc5ccccc45)CC3)c(Cl)cc2N1` [ZIPRASIDONE], for which the concentration at half-maximal activity (AC50) is above 30 µM in test [1]; above 30 µM in test [2]; above 10 µM in test [3]; above 10 µM in [5]; above 30 µM in test [9]; above 30 µM in test [7].
